From PubChem BioAssay (NCI)
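The concentration for 50% growth inhibition is given as GI50. TGI denotes the concentration required for complete inhibition of growth.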

Experiments:
Assay in all cases: DTP human tumour cell line panel, 384-well format
MDA-MB-231 breast = system: MDA-MB-231 breast
SNB-75 CNS = system: SNB-75 CNS
HT29 colon = system: HT29 colon
MOLT-4 leukemia = system: MOLT-4 leukemia
SF-295 CNS = system: SF-295 CNS
COLO 205 colon = system: COLO 205 colon
NCI-H522 lung = system: NCI-H522 lung
HL-60(TB) leukemia = system: HL-60(TB) leukemia
ACHN renal = system: ACHN renal
SF-268 CNS = system: SF-268 CNS
OVCAR-4 ovarian = system: OVCAR-4 ovarian
U251 glioblastoma = system: U251 glioblastoma
MALME-3M melanoma = system: MALME-3M melanoma
SW-620 colon = system: SW-620 colon
SN12C renal = system: SN12C renal
CCRF-CEM leukemia = system: CCRF-CEM leukemia
SF-539 CNS = system: SF-539 CNS
LOX IMVI melanoma = system: LOX IMVI melanoma
IGROV1 ovarian = system: IGROV1 ovarian
MDA-MB-468 breast = system: MDA-MB-468 breast
HS 578T breast = system: HS 578T breast
UO-31 renal = system: UO-31 renal
M14 melanoma = system: M14 melanoma
TK-10 renal = system: TK-10 renal
MDA-MB-435 melanoma = system: MDA-MB-435 melanoma
BT-549 breast = system: BT-549 breast
K-562 leukemia = system: K-562 leukemia
SK-MEL-5 melanoma = system: SK-MEL-5 melanoma
A498 renal = system: A498 renal
UACC-257 melanoma = system: UACC-257 melanoma
PC-3 prostate = system: PC-3 prostate
CAKI-1 renal = system: CAKI-1 renal
SK-OV-3 ovarian = system: SK-OV-3 ovarian
MCF7 breast = system: MCF7 breast
UACC-62 melanoma = system: UACC-62 melanoma
EKVX NSCLC = system: EKVX NSCLC
HCC-2998 colon = system: HCC-2998 colon
HOP-92 NSCLC = system: HOP-92 NSCLC
RXF 393 renal = system: RXF 393 renal
SNB-19 CNS = system: SNB-19 CNS
NCI-H23 lung = system: NCI-H23 lung
OVCAR-3 ovarian = system: OVCAR-3 ovarian
SK-MEL-28 melanoma = system: SK-MEL-28 melanoma
A549 NSCLC = system: A549 NSCLC
786-0 renal = system: 786-0 renal
NCI-H226 lung = system: NCI-H226 lung
RPMI-8226 leukemia = system: RPMI-8226 leukemia
OVCAR-8 ovarian = system: OVCAR-8 ovarian
NCI-H322M lung = system: NCI-H322M lung
HCT-15 colon = system: HCT-15 colon
T-47D breast = system: T-47D breast
DU-145 prostate = system: DU-145 prostate
HOP-62 NSCLC = system: HOP-62 NSCLC
SR leukemia = system: SR leukemia
NCI-H460 NSCLC = system: NCI-H460 NSCLC
HCT-116 colon = system: HCT-116 colon
NCI/ADR-RES ovarian = system: NCI/ADR-RES ovarian
KM12 colon = system: KM12 colon

`CC(=O)N1c2ccc(-c3ccc(C(=O)O)cc3)cc2[C@H](Nc2ccc(Cl)cc2)C[C@@H]1C` was tested, and the GI50 (MDA-MB-231 breast) was 61.8 nM, the TGI (MDA-MB-231 breast) was 75200 nM and the GI50 (SNB-75 CNS) was 213 nM. For the same compound, the TGI (SNB-75 CNS) was 49300 nM, the GI50 (HT29 colon) was 73.3 nM and the TGI (HT29 colon) was 15700 nM. It also gave a GI50 (MOLT-4 leukemia) of 54.1 nM, a TGI (MOLT-4 leukemia) of 2060 nM and a GI50 (SF-295 CNS) of 975 nM. For the same compound, the TGI (SF-295 CNS) was 17300 nM, the GI50 (COLO 205 colon) was 146 nM and the TGI (COLO 205 colon) was 10900 nM. For the same compound, the GI50 (NCI-H522 lung) was 24.3 nM, the TGI (NCI-H522 lung) was 1310 nM and the GI50 (HL-60(TB) leukemia) was less than 10 nM. The TGI (HL-60(TB) leukemia) was 25.9 nM, the GI50 (ACHN renal) was 558 nM and the TGI (ACHN renal) was 19700 nM. For the same compound, the GI50 (SF-268 CNS) was 386 nM, the TGI (SF-268 CNS) was 19500 nM and the GI50 (OVCAR-4 ovarian) was 104 nM. For the same compound, the TGI (OVCAR-4 ovarian) was 659 nM, the GI50 (U251 glioblastoma) was 488 nM and the TGI (U251 glioblastoma) was 21700 nM. The GI50 (MALME-3M melanoma) was 30.9 nM, the TGI (MALME-3M melanoma) was 1600 nM and the GI50 (SW-620 colon) was 2990 nM. It also gave a TGI (SW-620 colon) of 22000 nM, a GI50 (SN12C renal) of 108 nM and a TGI (SN12C renal) of 20900 nM. It also gave a GI50 (CCRF-CEM leukemia) of 60.5 nM, a TGI (CCRF-CEM leukemia) of 8770 nM and a GI50 (SF-539 CNS) of 314 nM. It also gave a TGI (SF-539 CNS) of 11200 nM, a GI50 (LOX IMVI melanoma) of 48.1 nM and a TGI (LOX IMVI melanoma) of 209 nM. For the same compound, the GI50 (IGROV1 ovarian) was 75.6 nM, the TGI (IGROV1 ovarian) was 18800 nM and the GI50 (MDA-MB-468 breast) was 171 nM. It also gave a TGI (MDA-MB-468 breast) of 10500 nM, a GI50 (HS 578T breast) of 20.7 nM and a TGI (HS 578T breast) of 185 nM. It also gave a GI50 (UO-31 renal) of 200 nM, a TGI (UO-31 renal) of 13000 nM and a GI50 (M14 melanoma) of 144 nM. It also gave a TGI (M14 melanoma) of 15500 nM, a GI50 (TK-10 renal) of 48.6 nM and a TGI (TK-10 renal) of 2650 nM. It also gave a GI50 (MDA-MB-435 melanoma) of 669 nM, a TGI (MDA-MB-435 melanoma) of 42600 nM and a GI50 (BT-549 breast) of 43 nM. The TGI (BT-549 breast) was 11400 nM, the GI50 (K-562 leukemia) was 84.2 nM and the TGI (K-562 leukemia) was 16800 nM. The GI50 (SK-MEL-5 melanoma) was 208 nM, the TGI (SK-MEL-5 melanoma) was 13100 nM and the GI50 (A498 renal) was 239 nM. It also gave a TGI (A498 renal) of 13500 nM, a GI50 (UACC-257 melanoma) of 192 nM and a TGI (UACC-257 melanoma) of 53600 nM. For the same compound, the GI50 (PC-3 prostate) was 369 nM, the TGI (PC-3 prostate) was 20600 nM and the GI50 (CAKI-1 renal) was 31.3 nM. For the same compound, the TGI (CAKI-1 renal) was 2560 nM, the GI50 (SK-OV-3 ovarian) was 101 nM and the TGI (SK-OV-3 ovarian) was 14100 nM. The GI50 (MCF7 breast) was 19.5 nM, the TGI (MCF7 breast) was 10200 nM and the GI50 (UACC-62 melanoma) was 22.2 nM. It also gave a TGI (UACC-62 melanoma) of 2740 nM, a GI50 (EKVX NSCLC) of 1390 nM and a TGI (EKVX NSCLC) of 46400 nM. It also gave a GI50 (HCC-2998 colon) of 62.8 nM, a TGI (HCC-2998 colon) of 676 nM and a GI50 (HOP-92 NSCLC) of 49.7 nM. The TGI (HOP-92 NSCLC) was 16400 nM, the GI50 (RXF 393 renal) was 702 nM and the TGI (RXF 393 renal) was 20800 nM. For the same compound, the GI50 (SNB-19 CNS) was 166 nM, the TGI (SNB-19 CNS) was 27000 nM and the GI50 (NCI-H23 lung) was 137 nM. It also gave a TGI (NCI-H23 lung) of 11400 nM, a GI50 (OVCAR-3 ovarian) of 57 nM and a TGI (OVCAR-3 ovarian) of 11300 nM. The GI50 (SK-MEL-28 melanoma) was 89.5 nM, the TGI (SK-MEL-28 melanoma) was 15000 nM and the GI50 (A549 NSCLC) was 456 nM. The TGI (A549 NSCLC) was 18600 nM, the GI50 ([…]-0 renal) was 74.9 nM and the TGI (786-0 renal) was 24200 nM. It also gave a GI50 (NCI-H226 lung) of 57.4 nM, a TGI (NCI-H226 lung) of 2510 nM and a GI50 (RPMI-8226 leukemia) of less than 10 nM. For the same compound, the TGI (RPMI-8226 leukemia) was 108 nM, the GI50 (OVCAR-8 ovarian) was 77 nM and the TGI (OVCAR-8 ovarian) was 3100 nM. The GI50 (NCI-H322M lung) was 201 nM, the TGI (NCI-H322M lung) was 13300 nM and the GI50 (HCT-15 colon) was 53.5 nM. It also gave a TGI (HCT-15 colon) of 10300 nM, a GI50 (T-47D breast) of 240 nM and a TGI (T-47D breast) of 12400 nM. The GI50 (DU-145 prostate) was 638 nM, the TGI (DU-145 prostate) was greater than 100000 nM and the GI50 (HOP-62 NSCLC) was 47.8 nM. The TGI (HOP-62 NSCLC) was 7200 nM, the GI50 (SR leukemia) was less than 10 nM and the TGI (SR leukemia) was 50.2 nM. For the same compound, the GI50 (NCI-H460 NSCLC) was 467 nM, the TGI (NCI-H460 NSCLC) was 15400 nM and the GI50 (HCT-116 colon) was 180 nM. It also gave a TGI (HCT-116 colon) of 12800 nM, a GI50 (NCI/ADR-RES ovarian) of 129 nM and a TGI (NCI/ADR-RES ovarian) of 3300 nM. It also gave a GI50 (KM12 colon) of 193 nM and a TGI (KM12 colon) of 15500 nM.
